Square brackets hold non-standard residues; d marks the D form. Ends that are not written are not given here. Peptide text beside a SMILES is read from it.
Assays:
Aedes aegypti larvae = experiment: Feeding TMOF and analog peptides to mosquito larvae (LD50); assay type: in vivo; settings: newly hatched larvae on autoclaved yeast 1 mg/ml, peptide 0 to 5.0 mg/ml, microtiter plates, 7 days
Excerpt: TMOF can traverse the gut epithelium, enter the hemolymph and bind a gut receptor (Borovsky, D. and F. Mahmood (1995) “Feeding the mosquito Aedes aegypti with TMOF and its analogs; effect on trypsin biosynthesis and egg development,” Regulatory Peptides 57:273-281.; Borovsky et al. (1994) “Characterization and localization of mosquito-gut receptors for trypsin modulating oostatic factor using complementary peptide immunochemistry”FASEB J. 8:350-355.). This characteristic permits the testing of TMOF and its analogues by feeding them to mosquito and other pest larvae. To find out if truncated TMOF peptides have an effect on larval growth and development, a series of peptides were synthesized and tested by feeding them to mosquito larvae at concentrations of 0 to 5.0 mg/ml (Table 2). Individual, newly hatched Aedes aegypti larvae were maintained in separate microtiter plate wells on a diet of autoclaved yeast (1 mg/ml). The diet was supplemented with TMOF peptides (Table 2). An identical number of larvae maintained on yeast served as a control. […] All control groups survived and larval growth and development was normal. Since larvae swallow only a small portion of the yeast particles adsorbed the peptides, it is assumed that approximately 1 to 20 ng are taken orally at the high concentrations.

[1] = test system: fourth instar Heliothis virescens; experiment: Feeding TMOF analogs to fourth instar H. virescens: larval weight; assay type: in vivo; settings: fourth instar larvae; for Weight Gain: 0.8 mg of analogue, 5 days; for Weight mg ± S.E.M. End: synthetic food and 0.8 mg of analogue, after 5 days; for Weight mg ± S.E.M. Start: weight before feeding (baseline)
Method: (§1) Several analogues were chosen and were fed to fourth instar Heliothis virescens for seven (7) days and to first instars for fourteen (14) days (Tables 3 and 4). In both cases a reduction in weight gain and trypsin inhibition was noted (Tables 3 and 4).
(§2) Individual first instar and fourth instar larvae of H. virescens were maintained in separate plastic cups and were fed on artificial diet blocks on which different concentrations of TMOF (0 to 1.6 mg) were adsorbed. Larvae were fed for 5 to 14 days and larval weight and trypsin activity were measured at the end of the experimental periods. […] When first instar larvae were fed for 14 days, an 18% and 26% reduction in weight was observed when analogues 15 and 16 were used (Table 4).
Fourth instar larvae were weighed and fed on synthetic food and 0.8 mg of TMOF analogues for 5 days. […]. Results are average of 3 to 10 experiments S.E.M.

TTLE biosynthesis = experiment: Feeding TMOF analogs to fourth instar H. virescens: gut trypsin (TTLE) biosynthesis by [3H]DFP; assay type: in vivo, Heliothis virescens; design: Trypsin: unit not given here; settings: fourth instar larvae, 0.8 mg of analogue, 5 days; for Trypsin: guts incubated with [3H]DFP; for Inhibition (trypsin): versus control
[2] = test system: first instar Heliothis virescens; experiment: Feeding first instar H. virescens on TMOF analogs for 14 days; assay type: in vivo; design: Weight Reduction ± S.E.M.: concentration or dose not given beside the values; settings: first instar larvae fed 14 days; for Weight Reduction ± S.E.M.: versus control
Method: as §1, §2

`N[C@@H](Cc1ccc(O)cc1)C(=O)N[C@@H](CO)C(=O)N[C@@H](Cc1ccccc1)C(=O)O` [30. YSF, YSF] (H-Tyr-Ser-Phe-OH; N-terminus and C-terminus assumed) was tested, and the “LD50 + S.E.M.” value (Aedes aegypti larvae) was 1.08 ± 0.12 mM.
YDAAP [15. YDAAP, YDAAP] was tested, and the “LD50 + S.E.M.” value (Aedes aegypti larvae) was 1.0 ± 0.18 mM, the “Weight Gain” value [1] was 179 mg and the “Weight mg ± S.E.M. End” value [1] was 217 ± 9.5 mg. For the same molecule, the “Weight mg ± S.E.M. Start” value [1] was 38.2 ± 1.3 mg, the Trypsin (TTLE biosynthesis) was 2.1 ± 0.2 and the “Inhibition (trypsin)” value (TTLE biosynthesis) was 17 ± 1.6%. The “Number of Dead Larvae” value [2] was 0, the “Weight ± S.E.M.” value [2] was 133 ± 7 mg and the “Weight Reduction ± S.E.M.” value [2] was 18 ± 1%.
With “YDPAP [12. YDPAP, YDPAP, reference compound]” the “LD50 + S.E.M.” value (Aedes aegypti larvae) was 0.64 ± 0.03 mM.
`C[C@H](NC(=O)[C@@H]1CCCN1C(=O)[C@@H](CC(=O)O)NC(=O)[C@@H](N)Cc1ccc(O)cc1)C(=O)N1CCC[C@H]1C(=O)O` [17. Y(D)DPAP, Y(D)DPAP] (H-Y[dD]PAP-OH; N-terminus and C-terminus assumed) was tested, and the “Weight Gain” value [1] was 153 mg, the “Weight mg ± S.E.M. End” value [1] was 188 ± 12 mg and the “Weight mg ± S.E.M. Start” value [1] was 34.6 ± 2 mg. For the same molecule, the Trypsin (TTLE biosynthesis) was 2.1 ± 0.2, the “Inhibition (trypsin)” value (TTLE biosynthesis) was 15 ± 1.3% and the “Number of Dead Larvae” value [2] was 1. The “Weight ± S.E.M.” value [2] was 152 ± 27 mg and the “Weight Reduction ± S.E.M.” value [2] was 7 ± 1%.
ADPAP [21. ADPAP, ADPAP] was tested, and the “LD50 + S.E.M.” value (Aedes aegypti larvae) was 2.0 ± 0.36 mM.
In the case of YAPAP [8. YAPAP, YAPAP], the “LD50 + S.E.M.” value (Aedes aegypti larvae) is reported as 0.54 ± 0.13 mM.
In the case of `N[C@@H](CC(=O)O)C(=O)N[C@@H](Cc1ccc(O)cc1)C(=O)O` [42. DY, DY] (H-Asp-Tyr-OH; N-terminus and C-terminus assumed), the “LD50 + S.E.M.” value (Aedes aegypti larvae) is reported as 3.0 ± 0.8 mM.
With `N[C@@H](Cc1ccccc1)C(=O)N[C@@H](CO)C(=O)N1CCC[C@H]1C(=O)O` [35. FSP, FSP] (H-Phe-Ser-Pro-OH; N-terminus and C-terminus assumed) the “LD50 + S.E.M.” value (Aedes aegypti larvae) was 2.3 ± 0.13 mM.
`C[C@H](N)C(=O)N[C@@H](C)C(=O)N1CCC[C@H]1C(=O)O` [29. AAP, AAP] (H-Ala-Ala-Pro-OH; N-terminus and C-terminus assumed) was tested, and the “LD50 + S.E.M.” value (Aedes aegypti larvae) was 1.08 ± 0.07 mM.
For `C[C@H](N)C(=O)N1CCC[C@H]1C(=O)N[C@@H](C)C(=O)O` [28. APA, APA] (H-Ala-Pro-Ala-OH; N-terminus and C-terminus assumed), the “LD50 + S.E.M.” value (Aedes aegypti larvae) was 1.0 ± 0.07 mM.
In the case of YSPAP [18. YSPAP, YSPAP], the “LD50 + S.E.M.” value (Aedes aegypti larvae) is reported as 1.4 ± 0.03 mM, the “Weight Gain” value [1] is reported as 151 mg and the “Weight mg ± S.E.M. End” value [1] is reported as 188 ± 10.6 mg. For the same molecule, the “Weight mg ± S.E.M. Start” value [1] was 30.6 ± 1.2 mg, the Trypsin (TTLE biosynthesis) was 2.0 ± 0.2 and the “Inhibition (trypsin)” value (TTLE biosynthesis) was 19 ± 2%. For the same molecule, the “Number of Dead Larvae” value [2] was 0, the “Weight ± S.E.M.” value [2] was 168 ± 11 mg and the “Weight Reduction ± S.E.M.” value [2] was 0%.
In the case of MPDYPPPPP [2. MPDYP5, MPDYP5], the “LD50 + S.E.M.” value (Aedes aegypti larvae) is reported as over 3.0 mM.
YFPAP [11. YFPAP, YFPAP] was tested, and the “LD50 + S.E.M.” value (Aedes aegypti larvae) was 0.64 ± 0.03 mM.
In the case of `C[C@H](NC(=O)[C@@H](N)Cc1ccccc1)C(=O)N1CCC[C@H]1C(=O)O` [39. FAP, FAP] (H-Phe-Ala-Pro-OH; N-terminus and C-terminus assumed), the “LD50 + S.E.M.” value (Aedes aegypti larvae) is reported as 3.8 ± 0.23 mM.
With YDFAP [14. YDFAP, YDFAP] the “LD50 + S.E.M.” value (Aedes aegypti larvae) was 0.74 ± 0.13 mM, the “Weight Gain” value [1] was 164 mg and the “Weight mg ± S.E.M. End” value [1] was 201 ± 12 mg. For the same molecule, the “Weight mg ± S.E.M. Start” value [1] was 37 ± 1.3 mg, the Trypsin (TTLE biosynthesis) was 2.1 ± 0.2 and the “Inhibition (trypsin)” value (TTLE biosynthesis) was 19 ± 1.5%. For the same molecule, the “Number of Dead Larvae” value [2] was 1, the “Weight ± S.E.M.” value [2] was 121 ± 7 mg and the “Weight Reduction ± S.E.M.” value [2] was 26 ± 1.5%.
In the case of YDPFP [20. YDPFP, YDPFP], the “LD50 + S.E.M.” value (Aedes aegypti larvae) is reported as 1.7 ± 0.4 mM.
With ADAAP (()..() TMOF analog) [ADAAP(12)] the “Weight Gain” value [1] was 174.1 mg, the “Weight mg ± S.E.M. End” value [1] was 209.7 ± 12 mg and the “Weight mg ± S.E.M. Start” value [1] was 35.7 ± 1.5 mg. For the same molecule, the Trypsin (TTLE biosynthesis) was 2.4 ± 0.3, the “Inhibition (trypsin)” value (TTLE biosynthesis) was 5 ± 0.6% and the “Number of Dead Larvae” value [2] was 0. For the same molecule, the “Weight ± S.E.M.” value [2] was 141 ± 9 mg and the “Weight Reduction ± S.E.M.” value [2] was 7 ± 0.4%.
For `C[C@H](NC(=O)[C@H](C)NC(=O)[C@@H](N)CC(=O)O)C(=O)O` [25. DAA, DAA] (H-Asp-Ala-Ala-OH; N-terminus and C-terminus assumed), the “LD50 + S.E.M.” value (Aedes aegypti larvae) was 0.91 ± 0.06 mM.
In the case of YNPAP [9. YNPAP, YNPAP], the “LD50 + S.E.M.” value (Aedes aegypti larvae) is reported as 0.55 ± 0.03 mM.
